Measurements as given in ChEMBL document CHEMBL6071190, “Discovery of BAY 2666605, a Molecular Glue for PDE3A and SLFN12” (ACS Med Chem Lett, 2024).

Key:
[1] = Antiproliferative activity against human NCI-H2172 cells incubated for 72 hrs by Cell Titer Glo luminescence assay; assay type: functional, cell-based; conditions: NCI-H2172, 72 h
[2] = Clearance in rat blood; assay type: ADME, tissue-based
[3] = Toxicity in NOD-SCID mouse assessed as weight loss at 10 mg/kg, po BID; assay type: organism-based; conditions: in vivo
[4] = Clearance in mouse blood; assay type: ADME, tissue-based
[5] = Protein binding in plasma (unknown origin); assay type: ADME, cell-free; conditions: read-out: PPB (converted)
[6] = Half life in iv dosed mouse; assay type: ADME, organism-based; conditions: in vivo
[7] = system: HeLa; assay: Antiproliferative activity against human HeLa cells incubated for 72 hrs by Cell Titer Glo luminescence assay; assay type: functional, cell-based
[8] = Metabolic stability in human hepatocytes assessed as bioavailability at 1 uM measured upto 90 mins by LC-MS/MS analysis; assay type: ADME, Hepatocyte
[9] = Toxicity in NOD-SCID mouse assessed as tolerability at 10 mg/kg, po BID; assay type: organism-based; conditions: in vivo
[10] = system: C32; assay: Antiproliferative activity against human C32 cells incubated for 72 hrs by Cell Titer Glo luminescence assay; assay type: functional, cell-based; conditions: C32, 72 h
[11] = system: Hs-578T; assay: Antiproliferative activity against human Hs-578T cells incubated for 72 hrs by Cell Titer Glo luminescence assay; assay type: functional, cell-based
[12] = Antiproliferative activity against human IGR-37 cell line; assay type: functional, cell-based
[13] = Oral bioavailability in rat; assay type: ADME, organism-based; conditions: in vivo
[14] = system: IGR-37 cell line; assay: Antitumor activity against human IGR-37 cells xenografted in po dosed NMRI nude mouse assessed as tumor growth inhibition administered twice daily; assay type: functional, organism-based; conditions: dose 0.5-2.5 mg/kg
[15] = Metabolic stability in dog hepatocytes assessed as bioavailability at 1 uM measured upto 90 mins by LC-MS/MS analysis; assay type: ADME, Canis lupus familiaris, Hepatocyte
[16] = system: RVH-421; assay: Antiproliferative activity against human RVH-421 cells incubated for 72 hrs by Cell Titer Glo luminescence assay; assay type: functional, cell-based; conditions: RVH-421, 72 h
[17] = Half life in iv dosed dog; assay type: ADME, organism-based, Canis lupus familiaris; conditions: in vivo
[18] = Metabolic stability in mouse hepatocytes assessed as bioavailability at 1 uM measured upto 90 mins by LC-MS/MS analysis; assay type: ADME, Hepatocyte
[19] = molecular target: cGMP-inhibited 3',5'-cyclic phosphodiesterase 3A (Homo sapiens, UniProt Q14432); assay: Inhibition of human full-length PDE3A expressed in Sf9 cells using [8-3H]adenosine 3', 5'-cyclic phosphate as substrate incubated for 60 mins by microbeta scintillation counting method
Chain of cGMP-inhibited 3',5'-cyclic phosphodiesterase 3A (Q14432 whole entry): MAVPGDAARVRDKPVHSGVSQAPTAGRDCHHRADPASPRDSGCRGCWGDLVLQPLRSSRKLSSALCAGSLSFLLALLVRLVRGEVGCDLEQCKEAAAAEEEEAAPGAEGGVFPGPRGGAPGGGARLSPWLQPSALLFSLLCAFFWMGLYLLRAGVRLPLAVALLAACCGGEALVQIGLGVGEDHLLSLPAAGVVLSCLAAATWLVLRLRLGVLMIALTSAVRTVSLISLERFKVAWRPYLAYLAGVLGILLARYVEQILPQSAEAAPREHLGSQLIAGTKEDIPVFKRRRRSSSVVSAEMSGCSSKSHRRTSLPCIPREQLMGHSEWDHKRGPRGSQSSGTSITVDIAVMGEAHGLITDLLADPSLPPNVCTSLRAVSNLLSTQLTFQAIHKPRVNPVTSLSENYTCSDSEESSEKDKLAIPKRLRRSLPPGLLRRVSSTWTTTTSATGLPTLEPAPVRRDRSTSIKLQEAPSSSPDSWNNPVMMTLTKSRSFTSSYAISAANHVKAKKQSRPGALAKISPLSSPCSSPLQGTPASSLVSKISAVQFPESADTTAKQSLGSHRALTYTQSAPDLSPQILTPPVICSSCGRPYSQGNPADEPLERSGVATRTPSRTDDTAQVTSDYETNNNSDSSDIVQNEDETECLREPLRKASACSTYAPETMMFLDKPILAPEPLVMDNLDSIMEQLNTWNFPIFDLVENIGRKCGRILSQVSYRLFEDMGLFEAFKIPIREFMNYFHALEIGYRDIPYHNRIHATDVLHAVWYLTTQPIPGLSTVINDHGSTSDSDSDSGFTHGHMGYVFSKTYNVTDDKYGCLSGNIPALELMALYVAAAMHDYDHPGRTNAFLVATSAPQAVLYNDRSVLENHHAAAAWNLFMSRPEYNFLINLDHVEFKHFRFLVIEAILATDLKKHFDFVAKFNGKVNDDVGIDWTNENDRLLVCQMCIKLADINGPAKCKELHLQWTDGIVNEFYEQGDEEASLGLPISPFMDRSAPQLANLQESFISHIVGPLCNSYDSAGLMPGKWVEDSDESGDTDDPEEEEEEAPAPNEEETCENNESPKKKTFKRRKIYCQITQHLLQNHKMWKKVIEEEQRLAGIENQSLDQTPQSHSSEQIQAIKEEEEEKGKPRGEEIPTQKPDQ

[20] = Selectivity ratio of IC50 for inhibition of full-length human PDE3A expressed in Sf9 cells to EC50 for antiproliferative activity against human HeLa cells
[21] = Metabolic stability in rat hepatocytes assessed as bioavailability at 1 uM measured upto 90 mins by LC-MS/MS analysis; assay type: ADME, Hepatocyte
[22] = Antiproliferative activity against human L3.3 cells incubated for 72 hrs by Cell Titer Glo luminescence assay; assay type: functional, cell-based; conditions: L3.3, 72 h
[23] = system: DK-MG; assay: Antiproliferative activity against human DK-MG cells incubated for 72 hrs by Cell Titer Glo luminescence assay; assay type: functional, cell-based
[24] = Oral bioavailability in dog; assay type: ADME, organism-based, Canis lupus familiaris; conditions: in vivo
[25] = Oral bioavailability in mouse; assay type: ADME, organism-based; conditions: in vivo
[26] = system: SK-MEL3; assay: Antiproliferative activity against human SK-MEL3 cells incubated for 72 hrs by Cell Titer Glo luminescence assay; assay type: functional, cell-based; conditions: SK-MEL3, 72 h
[27] = Antiproliferative activity against human NCI-H196 cells incubated for 72 hrs by Cell Titer Glo luminescence assay; assay type: functional, cell-based; conditions: NCI-H196, 72 h
[28] = system: A2058; assay: Antiproliferative activity against human A2058 cells incubated for 72 hrs by Cell Titer Glo luminescence assay; assay type: functional, cell-based; conditions: A2058, 72 h
[29] = system: GB-1; assay: Antiproliferative activity against human GB-1 cells incubated for 72 hrs by CellTiter-Glo luminescence assay; assay type: functional, cell-based; conditions: GB-1, 72 h
[30] = Half life in iv dosed rat; assay type: ADME, organism-based; conditions: in vivo

clearance [2] | clearance [4] | EC50 [7] | hepatic bioavailability predicted from hepatocyte stability (Fh) at 1 µM [8] | Fh at 1.5 h, 1 µM [15] | Fh at 1.5 h, 1 µM [18] | IC50 [19] | predicted hepatic bioavailability (Fh) from hepatocyte stability at 1 µM [21] | EC50 [26] | SMILES | EC50 [1] | EC50 [10] | EC50 [11] | EC50 [16] | Ratio IC50/EC50 [20] | EC50 [22] | EC50 [23] | EC50 [27] | EC50 [28] | also measured
4.17 mL/min/kg | 12.5 mL/min/kg | 1.04 nM | 73% | 70% | 85% | 82 nM | 94% | 2.81 nM | C[C@@H]1OC(=O)NN=C1c1ccc(-c2ccc(F)cc2)c(C(F)(F)F)c1 | 38 nM | 58 nM | 33 nM | 140 nM | 79 | 82 nM | 22 nM | 150 nM | 38 nM | Activity [3]: Non-Toxic; fraction unbound [5]: 0.002; half-life [6]: 4.6 h; Activity [9]: Non-Toxic; EC50 [12]: 3.1 nM; bioavailability [13]: > 95%; Activity [14]: Dose-Dependent Effect; half-life [17]: 13 h; bioavailability [24]: > 95%; bioavailability [25]: > 95%; EC50 [29]: 8 nM; half-life [30]: 15 h
8.17 mL/min/kg | 18.3 mL/min/kg | 2.29 nM | 79% | 87% | 63% | 607 nM | 93% | 5.26 nM | C[C@@H]1OC(=O)NN=C1c1ccc(-n2cc(C(F)(F)F)cn2)c(C(F)(F)F)c1 | 101 nM | 132 nM | 116 nM | 262 nM | 265 | 312 nM | 59 nM | 355 nM | 96 nM | 
 | 197 mL/min/kg | 0.18 nM | 32% | 69% | 27% | 37 nM | 99% | 0.38 nM | C[C@@H]1OC(=O)NN=C1c1ccc(-c2cnn(C(F)F)c2)c(C(F)(F)F)c1 | 37 nM | 52 nM | 20 nM | 47 nM | 202 | 15 nM | 13 nM | 32 nM | 25 nM | 
